“And” between values parts separate entries of the source, which are not always exact repeats. Identical values can stand only once.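 Exposure lasted 48 hours, with cells grown in 96-well plates and compounds tested at five concentrations. GI50 marks 50% less growth. TGI denotes the concentration required for complete inhibition of growth.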
Assays:
Assay in all cases: growth of human tumour cells (NCI), 48 h
DU-145 prostate = test system: DU-145 prostate
NCI-H226 lung = test system: NCI-H226 lung
OVCAR-8 ovarian = test system: OVCAR-8 ovarian
NCI-H522 lung = test system: NCI-H522 lung
HCC-2998 colon = test system: HCC-2998 colon
RXF 393 renal = test system: RXF 393 renal
CAKI-1 renal = test system: CAKI-1 renal
OVCAR-4 ovarian = test system: OVCAR-4 ovarian
LOX IMVI melanoma = test system: LOX IMVI melanoma
MDA-MB-435 = test system: MDA-MB-435

CCOC(=O)c1c(-c2ccc(OC)cc2)c(C#N)c2c(C#N)c(N)nn2c1N
GI50 (DU-145 prostate): 4.93 µM | TGI (DU-145 prostate): > 100 µM | GI50 (NCI-H226 lung): 3.62 µM | TGI (NCI-H226 lung): > 100 µM | GI50 (OVCAR-8 ovarian): 4.27 µM | TGI (OVCAR-8 ovarian): > 100 µM | GI50 (NCI-H522 lung): 2.55 µM | TGI (NCI-H522 lung): 12.5 µM | GI50 (HCC-2998 colon): 7.64 µM | TGI (HCC-2998 colon): > 100 µM | GI50 (RXF 393 renal): 2.25 µM | TGI (RXF 393 renal): 11.5 µM | GI50 (CAKI-1 renal): 2.95 µM | TGI (CAKI-1 renal): > 100 µM | GI50 (OVCAR-4 ovarian): 6.11 µM | TGI (OVCAR-4 ovarian): 96.7 µM | GI50 (LOX IMVI melanoma): 4.81 µM | TGI (LOX IMVI melanoma): > 100 µM | GI50 (MDA-MB-435): 0.613 µM | TGI (MDA-MB-435): 2.89 µM

CN1CC[C@@H](c2c(O)cc(O)c3c(=O)cc(-c4ccc(C(F)(F)F)cc4Cl)oc23)[C@@H]1CO
GI50 (DU-145 prostate): 16.5 µM | TGI (DU-145 prostate): 37.7 µM | GI50 (NCI-H226 lung): 10.5 µM | TGI (NCI-H226 lung): 77.2 µM | GI50 (OVCAR-8 ovarian): 18.2 µM | TGI (OVCAR-8 ovarian): 42 µM | GI50 (NCI-H522 lung): 17.4 µM | TGI (NCI-H522 lung): 37.3 µM | GI50 (HCC-2998 colon): 13.7 µM | TGI (HCC-2998 colon): 33.1 µM | GI50 (RXF 393 renal): 10.9 µM | TGI (RXF 393 renal): 24.8 µM | GI50 (CAKI-1 renal): 14.7 µM | TGI (CAKI-1 renal): 39.8 µM | GI50 (OVCAR-4 ovarian): 23.6 µM | TGI (OVCAR-4 ovarian): 83.2 µM | GI50 (LOX IMVI melanoma): 11.9 µM | TGI (LOX IMVI melanoma): 25.6 µM | GI50 (MDA-MB-435): 10 µM | TGI (MDA-MB-435): 23 µM

Cn1c(Nc2ccc(C(F)(F)F)cc2)nc2cc(Oc3ccnc(-c4ncc(C(F)(F)F)[nH]4)c3)ccc21
GI50 (DU-145 prostate): 2.05 µM | TGI (DU-145 prostate): 17.3 µM | GI50 (NCI-H226 lung): 0.492 µM | TGI (NCI-H226 lung): 16.5 µM | GI50 (OVCAR-8 ovarian): 0.775 µM | TGI (OVCAR-8 ovarian): 14.1 µM | GI50 (NCI-H522 lung): 0.307 µM | TGI (NCI-H522 lung): 11 µM | GI50 (HCC-2998 colon): 1.25 µM | TGI (HCC-2998 colon): 13.1 µM | GI50 (RXF 393 renal): 0.0544 µM | TGI (RXF 393 renal): 7.32 µM | GI50 (CAKI-1 renal): 0.0609 µM | TGI (CAKI-1 renal): 15.4 µM | GI50 (OVCAR-4 ovarian): 1.21 µM | TGI (OVCAR-4 ovarian): 14.4 µM | GI50 (LOX IMVI melanoma): 0.0599 µM | TGI (LOX IMVI melanoma): 1.78 µM | GI50 (MDA-MB-435): 0.0774 µM | TGI (MDA-MB-435): 9.44 µM

O=C(/C=C/C=C/c1ccccc1)c1ccccc1
TGI (DU-145 prostate): 40.1 µM | TGI (NCI-H226 lung): 34.3 µM | TGI (OVCAR-8 ovarian): 26.1 µM | TGI (NCI-H522 lung): 20.2 µM | TGI (HCC-2998 colon): 31.7 µM | TGI (RXF 393 renal): 37.3 µM | TGI (CAKI-1 renal): 31.4 µM | TGI (OVCAR-4 ovarian): 39.7 µM | TGI (LOX IMVI melanoma): 29.3 µM | TGI (MDA-MB-435): 34.2 µM

CCCCCCCN=C(N)c1ccc(N2CCN(c3ccc(C(N)=NCCCCCCC)cc3)CC2)cc1
GI50 (DU-145 prostate): 0.296 µM | TGI (DU-145 prostate): 21.8 µM | GI50 (NCI-H226 lung): 2.13 µM | TGI (NCI-H226 lung): > 100 µM | GI50 (OVCAR-8 ovarian): 0.376 µM | TGI (OVCAR-8 ovarian): 7.34 µM | TGI (NCI-H522 lung): 0.0351 µM | GI50 (HCC-2998 colon): 0.0231 µM | TGI (HCC-2998 colon): 0.163 µM | GI50 (RXF 393 renal): 2.46 µM | TGI (RXF 393 renal): 6.69 µM | GI50 (CAKI-1 renal): 0.474 µM | TGI (CAKI-1 renal): 21.4 µM | GI50 (OVCAR-4 ovarian): 1.05 µM | TGI (OVCAR-4 ovarian): > 13.2 µM | GI50 (LOX IMVI melanoma): 1.52 µM | TGI (LOX IMVI melanoma): 19.1 µM | GI50 (MDA-MB-435): 0.0254 µM | TGI (MDA-MB-435): 0.0992 µM

C=COC(=O)N[C@H]1CCc2cc(OC)c(OC)c(OC)c2-c2ccc(SC)c(=O)cc21
TGI (DU-145 prostate): < 0.01 µM | TGI (NCI-H226 lung): 0.793 µM | TGI (OVCAR-8 ovarian): > 80.7 µM | TGI (NCI-H522 lung): < 0.01 µM | TGI (HCC-2998 colon): 85.6 µM | TGI (RXF 393 renal): 3.14 µM | TGI (CAKI-1 renal): 45.9 µM | TGI (OVCAR-4 ovarian): 92.9 µM | TGI (LOX IMVI melanoma): > 95.8 µM | TGI (MDA-MB-435): < 0.01 µM

C/C(=N\NC(=S)N1CCCCCC1)c1ccccn1
GI50 (DU-145 prostate): 0.408 µM | TGI (DU-145 prostate): 6.29 µM and 3.25 µM | GI50 (NCI-H226 lung): 0.245 µM | TGI (NCI-H226 lung): 3.62 µM and 5.35 µM | TGI (OVCAR-8 ovarian): 3.48 µM and 4.57 µM | GI50 (NCI-H522 lung): 0.109 µM | TGI (NCI-H522 lung): 0.623 µM and 1.39 µM | GI50 (HCC-2998 colon): 0.0374 µM | TGI (HCC-2998 colon): 2.03 µM and 1.35 µM | GI50 (RXF 393 renal): 0.117 µM | TGI (RXF 393 renal): 2.05 µM and 0.658 µM | GI50 (CAKI-1 renal): < 0.0393 µM | TGI (CAKI-1 renal): 5.45 µM and 10.4 µM | GI50 (OVCAR-4 ovarian): < 0.0412 µM | TGI (OVCAR-4 ovarian): 2.52 µM and 3.25 µM | TGI (LOX IMVI melanoma): 4.37 µM and 1.37 µM | GI50 (MDA-MB-435): 0.0703 µM | TGI (MDA-MB-435): 3.92 µM and 1.17 µM

COC(=O)c1ccc(-c2c(C#N)[n+](=O)c3cc(Cl)c(Cl)cc3n2[O-])cc1
GI50 (DU-145 prostate): 20.2 µM | TGI (DU-145 prostate): 40.9 µM | GI50 (NCI-H226 lung): 25.7 µM | TGI (NCI-H226 lung): 70.6 µM | GI50 (OVCAR-8 ovarian): 24.3 µM | TGI (OVCAR-8 ovarian): 55.6 µM | GI50 (NCI-H522 lung): 4.12 µM | TGI (NCI-H522 lung): > 100 µM | GI50 (HCC-2998 colon): 16.9 µM | TGI (HCC-2998 colon): 37.7 µM | GI50 (RXF 393 renal): 12.1 µM | TGI (RXF 393 renal): 28 µM | GI50 (CAKI-1 renal): 18.9 µM | TGI (CAKI-1 renal): 35.4 µM | GI50 (OVCAR-4 ovarian): 19.7 µM | TGI (OVCAR-4 ovarian): 38 µM | GI50 (LOX IMVI melanoma): 2.38 µM | TGI (LOX IMVI melanoma): 5.37 µM | GI50 (MDA-MB-435): 17.9 µM | TGI (MDA-MB-435): 37 µM

CN(C)c1ccc(N=Nc2ccccn2)c(O)c1
GI50 (DU-145 prostate): 0.481 µM | TGI (DU-145 prostate): > 100 µM | GI50 (NCI-H226 lung): 0.515 µM | TGI (NCI-H226 lung): 8.67 µM | GI50 (OVCAR-8 ovarian): 0.321 µM | TGI (OVCAR-8 ovarian): > 100 µM | GI50 (NCI-H522 lung): 0.372 µM | GI50 (HCC-2998 colon): 0.376 µM | TGI (HCC-2998 colon): > 100 µM | GI50 (RXF 393 renal): 0.229 µM | TGI (RXF 393 renal): 0.929 µM | GI50 (CAKI-1 renal): 0.344 µM | TGI (CAKI-1 renal): > 100 µM | GI50 (OVCAR-4 ovarian): 0.164 µM | TGI (OVCAR-4 ovarian): 24.6 µM | GI50 (LOX IMVI melanoma): 0.258 µM | TGI (LOX IMVI melanoma): > 100 µM | GI50 (MDA-MB-435): 0.556 µM | TGI (MDA-MB-435): > 100 µM

O=C(NNc1ccccc1)C(=O)NNc1ccccc1
GI50 (DU-145 prostate): 20.8 µM | TGI (DU-145 prostate): > 100 µM | GI50 (NCI-H226 lung): > 100 µM | TGI (NCI-H226 lung): > 100 µM | GI50 (OVCAR-8 ovarian): > 100 µM | TGI (OVCAR-8 ovarian): > 100 µM | GI50 (NCI-H522 lung): > 100 µM | TGI (NCI-H522 lung): > 100 µM | GI50 (HCC-2998 colon): 2.96 µM | TGI (HCC-2998 colon): > 100 µM | GI50 (RXF 393 renal): > 100 µM | TGI (RXF 393 renal): > 100 µM | GI50 (CAKI-1 renal): 0.795 µM | TGI (CAKI-1 renal): > 100 µM | GI50 (OVCAR-4 ovarian): 1.83 µM | TGI (OVCAR-4 ovarian): > 100 µM | GI50 (LOX IMVI melanoma): 4.34 µM | TGI (LOX IMVI melanoma): > 100 µM | GI50 (MDA-MB-435): 1.84 µM | TGI (MDA-MB-435): > 100 µM

BrCc1cccc(C[P+](c2ccccc2)(c2ccccc2)c2ccccc2)c1
GI50 (DU-145 prostate): 52.9 µM | TGI (DU-145 prostate): > 100 µM | GI50 (NCI-H226 lung): 45 µM | TGI (NCI-H226 lung): > 100 µM | GI50 (OVCAR-8 ovarian): 6.65 µM | TGI (OVCAR-8 ovarian): > 100 µM | GI50 (NCI-H522 lung): 6.88 µM | TGI (NCI-H522 lung): > 100 µM | GI50 (HCC-2998 colon): 21.8 µM | TGI (HCC-2998 colon): > 100 µM | GI50 (RXF 393 renal): 54.7 µM | TGI (RXF 393 renal): > 100 µM | GI50 (CAKI-1 renal): > 100 µM | TGI (CAKI-1 renal): > 100 µM | GI50 (OVCAR-4 ovarian): 9.02 µM | TGI (OVCAR-4 ovarian): > 100 µM | GI50 (LOX IMVI melanoma): 14 µM | TGI (LOX IMVI melanoma): > 100 µM | GI50 (MDA-MB-435): 8.38 µM | TGI (MDA-MB-435): > 100 µM

Source: PubChem BioAssay (NCI)
